Test results from US20250352512A2, “C4-S[…] DERIVATIVES AND METHODS OF USING” (priority 2022, published 2025).
Where two headings read alike, the source gives them in different places.

Legend:
[1] = biological target: DRD2S (Homo sapiens, UniProt P14416); experiment: cell-based
[2] = biological target: NMDAR (Homo sapiens, UniProt Q05586+Q13224); experiment: cell-based
[3] = DRD2S, GPCR, ANT (antagonist), read-out: IC50
[4] = NMDAR, ion channel, BL (blocker), read-out: IC50

Sequence of DRD2S (P14416 1-414 isoform P14416-2): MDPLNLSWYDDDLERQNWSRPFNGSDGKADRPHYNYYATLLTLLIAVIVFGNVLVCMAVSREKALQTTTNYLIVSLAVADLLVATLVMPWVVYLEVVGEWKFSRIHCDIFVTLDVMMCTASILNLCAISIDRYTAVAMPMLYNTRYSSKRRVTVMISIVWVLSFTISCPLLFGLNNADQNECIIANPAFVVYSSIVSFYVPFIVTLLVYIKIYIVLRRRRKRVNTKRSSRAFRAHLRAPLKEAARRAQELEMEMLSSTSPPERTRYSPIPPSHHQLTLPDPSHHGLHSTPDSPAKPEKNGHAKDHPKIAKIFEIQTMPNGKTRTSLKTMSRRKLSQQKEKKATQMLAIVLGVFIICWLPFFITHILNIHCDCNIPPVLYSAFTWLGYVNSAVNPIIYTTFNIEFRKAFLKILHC
Sequence of NMDAR (Q13224 27-1484, other chains not shown): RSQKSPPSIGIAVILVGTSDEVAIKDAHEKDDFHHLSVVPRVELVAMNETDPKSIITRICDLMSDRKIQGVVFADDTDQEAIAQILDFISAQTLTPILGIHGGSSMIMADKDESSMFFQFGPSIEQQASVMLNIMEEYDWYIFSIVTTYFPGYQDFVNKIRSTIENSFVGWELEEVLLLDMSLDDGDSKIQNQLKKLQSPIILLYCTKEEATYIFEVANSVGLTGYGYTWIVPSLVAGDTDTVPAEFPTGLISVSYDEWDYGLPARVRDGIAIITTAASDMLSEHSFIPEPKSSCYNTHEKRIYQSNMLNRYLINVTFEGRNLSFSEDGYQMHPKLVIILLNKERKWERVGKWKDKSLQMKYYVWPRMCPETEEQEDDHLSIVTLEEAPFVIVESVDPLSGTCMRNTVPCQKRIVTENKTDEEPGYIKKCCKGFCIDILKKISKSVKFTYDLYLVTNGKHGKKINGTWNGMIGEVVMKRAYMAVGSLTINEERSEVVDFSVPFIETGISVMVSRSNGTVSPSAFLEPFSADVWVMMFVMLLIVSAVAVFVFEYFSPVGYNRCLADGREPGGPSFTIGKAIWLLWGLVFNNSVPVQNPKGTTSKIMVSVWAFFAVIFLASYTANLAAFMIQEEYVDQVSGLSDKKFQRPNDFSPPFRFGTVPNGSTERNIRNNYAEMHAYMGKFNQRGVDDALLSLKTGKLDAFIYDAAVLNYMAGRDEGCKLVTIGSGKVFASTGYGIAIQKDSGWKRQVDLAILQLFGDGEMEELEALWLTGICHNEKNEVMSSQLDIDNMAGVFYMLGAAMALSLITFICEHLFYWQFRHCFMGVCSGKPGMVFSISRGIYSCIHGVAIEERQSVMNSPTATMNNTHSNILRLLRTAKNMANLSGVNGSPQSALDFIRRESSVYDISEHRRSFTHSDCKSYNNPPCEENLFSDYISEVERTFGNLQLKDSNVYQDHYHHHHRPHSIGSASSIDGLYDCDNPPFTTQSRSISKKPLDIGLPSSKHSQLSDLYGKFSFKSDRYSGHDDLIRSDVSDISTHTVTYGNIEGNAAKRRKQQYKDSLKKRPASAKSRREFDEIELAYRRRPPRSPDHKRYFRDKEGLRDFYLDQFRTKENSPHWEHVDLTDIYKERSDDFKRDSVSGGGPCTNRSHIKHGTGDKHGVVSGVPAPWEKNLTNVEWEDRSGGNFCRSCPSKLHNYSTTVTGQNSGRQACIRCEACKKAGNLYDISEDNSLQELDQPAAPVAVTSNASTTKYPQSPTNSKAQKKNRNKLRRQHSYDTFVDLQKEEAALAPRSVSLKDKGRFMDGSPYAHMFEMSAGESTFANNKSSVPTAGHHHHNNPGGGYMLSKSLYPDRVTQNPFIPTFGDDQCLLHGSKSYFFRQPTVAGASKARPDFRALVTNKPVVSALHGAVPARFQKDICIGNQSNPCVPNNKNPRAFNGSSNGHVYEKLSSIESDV

| Structure (SMILES) | IC50 [1, 3] [µM] | IC50 [2, 4] [µM] | IC50 [1] [µM] | IC50 [2] [µM] |
| --- | --- | --- | --- | --- |
| CN(C)Cc1c[nH]c2cccc(O[Si](C)(C)C(C)(C)C)c12 [A(IV)] | > 100 | 12.1 |  |  |
| CC(C)[Si](Oc1cccc2[nH]cc(CN(C)C)c12)(C(C)C)C(C)C [A(V)] | > 100 | 10.1 |  |  |
| CN(C)CCc1c[nH]c2cccc(OC(=O)OCc3ccccc3)c12 [B(II)] |  |  | 12.4 | 16 |
| CN(C)CCc1c[nH]c2cccc(OC(=O)OCC3CC3)c12 [B(III)] | > 100 | > 100 |  |  |
| CCCCC(=O)OCOc1cccc2[nH]cc(CCN(C)C)c12 [D(III)] | > 100 | > 100 |  |  |
| CCCC(=O)OCOc1cccc2[nH]cc(CCN(C)C)c12 [D(IV)] | > 100 | > 100 |  |  |
| CC(C)OC(=O)OCOc1cccc2c1c(CCN(C)C)cn2COC(=O)OC(C)C [D(XIII)] | > 100 | > 100 |  |  |
| CN(C)CCc1c[nH]c2cccc(OP(=O)(Oc3ccccc3)Oc3ccccc3)c12 [F(I)] |  |  | > 100 | > 100 |
